The source of these data is patent EP2292237A1, “Sigma ligands for the prevention or treatment of pain induced by chemotherapy” (Laboratorios del. Dr. Esteve, S.A., priority 2009, dated 2011).

The test system of data set [1] is CD-1 mice. In words: Acetone test: development of paclitaxel-induced cold allodynia, co-administration with paclitaxel or paclitaxel vehicle. Format: in vivo. As to conditions: for duration of acetone-induced paw licking/biting: 64 mg/kg s.c. 30 min before each i.p. paclitaxel dose (2 mg/kg), versus paclitaxel + saline; for duration of acetone-induced paw licking/biting / days with statistically significant differences in duration of acetone-induced licking/biting versus paclitaxel + saline: days 1 to 5; for days with statistically significant differences in duration of acetone-induced licking/biting versus paclitaxel + saline: 64 mg/kg s.c. 30 min before each i.p. paclitaxel dose, days after the first dose of paclitaxel; for response of the animals to acetone (duration of hind paw licking/biting): co-administration days 1 to 5 of paclitaxel-vehicle i.p. and compound 64 mg/kg s.c., versus paclitaxel-vehicle + saline, hydrochloride, 64 mg/kg; for development of cold allodynia induced by paclitaxel: co-administration of paclitaxel (2 mg/kg, i.p.) and compound (64 mg/kg, s.c.).

The subject of data set [2] is CD-1 mice. In words: Acetone test: expression of paclitaxel-induced cold allodynia, single s.c. injection on day 10. The data set is classed as in vivo. As to conditions: for expression of cold allodynia induced by paclitaxel: acute treatment 32-64 mg/kg s.c. on day 10 in mice pretreated with paclitaxel; for response to acetone of control (paclitaxel-vehicle treated) animals: acute treatment 32 or 64 mg/kg s.c. on day 10; for duration of hind paw licking/biting (acetone test) versus saline: single s.c. injection 64 mg/kg in mice pretreated with paclitaxel-vehicle (Figs. 7 and 8). The protocol: Experiments were performed in CD-1 mice (Charles River, U.S.A.) with at least n = 10/experimental group. Mice weighing 25-30 g were used. The animals were housed in colony cages with free access to food and water prior to the experiments. They were maintained in temperature- and light-controlled rooms (22 ± 1 °C, lights on at 08.00 h and off at 20.00 h, air replacement every 20 min). Testing took place during the light phase (from 9.00 h to 15.00 h).
Therefore, the cumulative dose was 10 mg/kg per mouse.
Compounds 1a and 1b were dissolved in normal saline just before administration and applied at doses of 32 or 64 mg/kg subcutaneously.
The response of the animals to the different nociceptive stimuli was tested subsequently during 2-4 weeks, depending on the test (see below), without any additional treatment. Each animal was tested only in one nociceptive model. […] Each animal received only one dose of compound 1 a or 1b and was tested in only one nociceptive model.
Procedure for assessment of cold allodynia. Cold allodynia was tested as previously described by Smith et al. in Life Sci., 2004, 74(21), 2593-604, by gently touching the plantar skin of the hind paws with an acetone bubble formed with a syringe connected to a thin polyethylene tube. The mice were housed and habituated for 30 min in transparent plastic boxes (7 x 7 x 13 cm) with a floor made of wire mesh. After the adaptation period, acetone was applied alternately three times to each paw at intervals of 30 s, and the duration and frequency of licking or biting were recorded. A small mirror was placed behind the chambers to allow clear observation of the paws. The time spent licking or biting the paw was recorded by a stopwatch and represented as the cumulative time of licking/biting in the six measurements. Since licking persisting more than 10 s in the experiments was very unusual, a cut-off time of 10 s was used for each trial. […]
On that day, duration of hind paw licking/biting was recorded immediately before (time 0) and at several times (60, 120 and 180 min) after the injection of compound 1 a, compound 1 b or saline.
On that day, duration of hind paw licking/biting was recorded immediately before (time 0) and at several times (60, 120 and 180 min) after the injection of compound 1a, compound 1b or saline.

The test system of a further data set is patients. The conditions noted are these: cited from earlier work.

Entries after “also recorded” stand apart in the source; their conditions may differ. Where two headings read alike, the source gives them in different places.

In the case of `Cl.c1ccc(-n2ncc3c2CCC[C@H]3CCN2CCOCC2)cc1` [compound 1a, (S)-4,5,6,7-tetrahydro-4-(2-(morpholin-4-yl)ethyl)-1-phenyl-1H-indazole hydrochloride], in the data set on CD-1 mice [1], the “duration of acetone-induced paw licking/biting” value was “reduced”, the “days with statistically significant differences in duration of acetone-induced licking/biting versus paclitaxel + saline” value is on record as “from day 7 to day 21”, the “response of the animals to acetone (duration of hind paw licking/biting)” value is given as “did not significantly modify; also recorded: No statistically significant differences” and the “development of cold allodynia induced by paclitaxel” value was “inhibited”. Also, in the data set with CD-1 mice [2] (acute treatment 32-64 mg/kg s.c. on day 10, time after administration of the drug), the “times at which the effect was statistically significant in comparison with the saline-treated group” value is reported as “at all times evaluated from 60 to 180 min”. Besides, the “expression of cold allodynia induced by paclitaxel” value in the data set with CD-1 mice [2] (hydrochloride) is “dose-dependently inhibited”. For the same compound, in the data set on CD-1 mice [2], the “response to acetone of control (paclitaxel-vehicle treated) animals” value is “did not affect” and the “duration of hind paw licking/biting (acetone test) versus saline” value is “No statistically significant differences”.
As to `Cl.c1ccc(-n2ncc3c2CCC[C@@H]3CCN2CCOCC2)cc1` [compound 1b, (R)-4,5,6,7-tetrahydro-4-(2-(morpholin-4-yl)ethyl)-1-phenyl-1H-indazole hydrochloride], in the data set on CD-1 mice [1], the “duration of acetone-induced paw licking/biting” value is “reduced”; the “days with statistically significant differences in duration of acetone-induced licking/biting versus paclitaxel + saline” value was “at days 7, 14 and 21”; the “response of the animals to acetone (duration of hind paw licking/biting)” value is given as “did not significantly modify; also recorded: No statistically significant differences”; the “development of cold allodynia induced by paclitaxel” value is “inhibited”. In addition, in the data set with CD-1 mice [2], the “expression of cold allodynia induced by paclitaxel” value is “inhibited”, the “response to acetone of control (paclitaxel-vehicle treated) animals” value is given as “did not affect” and the “duration of hind paw licking/biting (acetone test) versus saline” value is recorded as “No statistically significant differences”.
As for `O=C(O)C(=O)O.c1ccc(-n2ncc3c2CCCC3CCN2CCOCC2)cc1` (stereo not shown) [compound 2, 4,5,6,7-tetrahydro-4-(2-(morpholin-4-yl)ethyl)-1-phenyl-1H-indazole oxalate], the “duration of acetone-induced licking/biting” value with CD-1 mice [2] (acute injection 32-64 mg/kg s.c., 10 days after the first dose of paclitaxel) was “dose-dependently reduced”.
As to `CC(=O)O[C@H]1C(=O)[C@@]2(C)[C@H]([C@H](OC(=O)c3ccccc3)[C@]3(O)C[C@H](OC(=O)[C@H](O)[C@@H](NC(=O)c4ccccc4)c4ccccc4)C(C)=C1C3(C)C)[C@]1(OC(C)=O)CO[C@@H]1C[C@@H]2O` [paclitaxel, Paclitaxel, reference compound], the “duration of paw licking/biting in the acetone test” value with CD-1 mice [1] (paclitaxel (i.p., 2 mg/kg) and saline (s.c.) co-administered days 1 to 5, began on day 7, maximum on day 14) is “significant increase”. The “control animals treated with paclitaxel that did not show cold allodynia” value in the data set with CD-1 mice [2] ('non-responders': less than 2 s licking/biting on days 7 and 10 after paclitaxel) was “Around 33%”. Besides, in the data set on CD-1 mice [2] (paclitaxel i.p. once daily days 1 to 5, evaluated 10 days after the first dose), the “cold allodynia (increase in the duration of acetone-induced paw licking/biting)” value is on record as “developed cold allodynia”. The “progressing to dose-limiting neurotoxicity in % of patients” value in the data set on patients (paclitaxel dose 135 mg/m^2) is reported as 0%; with patients (paclitaxel dose 175 mg/m^2), 21%; in the data set on patients (paclitaxel dose 250-300 mg/m^2), 71%.
